Experimental data taken from patent publication US20250195491A1 (AEVIS BIO, INC., priority 2022, published 2025).

Test system: SALL4
Assay: SALL4 degradation by immunoblotting in Tera-1 cells
Format: cell-based, human
Settings: 0.000128-10 μM, 4 hours, immunoblot, FIG. 4
Text: It has been reported that a cereblon (CRBN)-binding therapeutic such as a thalidomide-based compound can cause severe congenital abnormalities such as forelimb shortening or brachydactyly, which are closely associated with the decomposition of SALL4.
To this end, the Tera-1 cell line (HTB-105), which is a human embryonic carcinoma cell line, was purchased from the American Type Culture Collection (ATCC, Manassas, VA, USA) and used, and then cultured using a DMEM medium (Corning, MD, USA) supplemented with 10% fetal bovine serum (Corning, MD, USA), 100 U/mL of penicillin (Corning, MD, USA), and 100 100 μg/mL streptomycin (Corning, MD, USA) at 37° C. in a 5% CO2 incubator.
The cells were disrupted by adding a RIPA buffer containing a protease inhibitor cocktail (Thermo Fisher Scientific), and centrifuged at 14,000 rpm for 15 minutes at 4° C. to obtain a cell extract. Equal amounts of the cell extract were loaded, and proteins were separated by SDS-PAGE and then transferred to a PVDF membrane. The protein-transferred membrane was blocked using skim milk, incubated with a primary antibody for 3 hours at room temperature, and then incubated with an HRP-conjugated secondary antibody for 1 hour at room temperature. The resulting product was washed with TBS-T three times between steps. […]

SMILES: Nc1cccc2c1C(=S)N(C1CCC(=O)NC1=O)C2=O (stereo not shown) [3-MP, 3-thiopomalidomide]
- decomposition of SALL4: less decomposition of SALL4 than pomalidomide
